The text below walks through data of patent US20250163054A1, “SUBSTITUTED BICYCLIC HETEROARYL COMPOUNDS USEFUL AS INHIBITORS OF TLR9” (Bristol-Myers Squibb Company, priority 2022, published 2025).

Some results are limits rather than exact numbers.

What all share (format): cell-based
In assay [1] the target is T1, human TLR9 (Homo sapiens, UniProt Q9NR96).
T1 construct: host or cells: HEK-Blue cells (HEK293-derived reporter line)
T1 sequence (Q9NR96 26-1032): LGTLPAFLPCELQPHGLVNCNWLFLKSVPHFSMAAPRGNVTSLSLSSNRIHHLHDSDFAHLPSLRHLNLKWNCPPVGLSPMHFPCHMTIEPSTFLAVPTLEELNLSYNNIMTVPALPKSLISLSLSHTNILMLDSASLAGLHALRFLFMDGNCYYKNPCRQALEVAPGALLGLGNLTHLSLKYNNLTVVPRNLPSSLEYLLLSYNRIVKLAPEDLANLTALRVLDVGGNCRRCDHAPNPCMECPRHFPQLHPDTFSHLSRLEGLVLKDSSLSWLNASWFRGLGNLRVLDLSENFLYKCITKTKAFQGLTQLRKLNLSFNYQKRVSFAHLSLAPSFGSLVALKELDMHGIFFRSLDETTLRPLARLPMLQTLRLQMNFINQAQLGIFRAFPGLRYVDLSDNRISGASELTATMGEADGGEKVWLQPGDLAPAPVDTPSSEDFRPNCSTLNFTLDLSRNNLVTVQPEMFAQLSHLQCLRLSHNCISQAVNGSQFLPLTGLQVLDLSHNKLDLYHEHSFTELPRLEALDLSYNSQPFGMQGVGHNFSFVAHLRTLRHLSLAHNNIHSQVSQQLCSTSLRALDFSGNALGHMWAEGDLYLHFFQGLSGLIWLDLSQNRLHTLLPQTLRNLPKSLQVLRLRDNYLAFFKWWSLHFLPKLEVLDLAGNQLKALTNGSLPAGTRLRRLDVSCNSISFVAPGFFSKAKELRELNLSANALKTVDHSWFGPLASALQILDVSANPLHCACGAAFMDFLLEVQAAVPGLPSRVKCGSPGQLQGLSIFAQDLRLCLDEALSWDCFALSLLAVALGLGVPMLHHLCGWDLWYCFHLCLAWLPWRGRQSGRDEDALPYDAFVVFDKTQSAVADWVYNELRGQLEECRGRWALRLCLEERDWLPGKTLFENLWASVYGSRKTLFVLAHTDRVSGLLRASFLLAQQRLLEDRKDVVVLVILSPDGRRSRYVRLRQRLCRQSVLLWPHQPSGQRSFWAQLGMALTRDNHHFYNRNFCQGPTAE
As to the kind of experiment: TLR7/8/9 Inhibition Reporter Assays (TLR9). The conditions noted are these: HEK-Blue cells overexpressing human TLR9, SEAP reporter, stimulated with TLR9 ligand ODN2006. The procedure:
(§1) HEK-Blue™-cells (Invivogen) overexpressing human TLR7, TLR8 or TLR9 receptors were used for screening inhibitors of these receptors using an inducible SEAP (secreted embryonic alkaline phosphatase) reporter gene under the control of the IFN-β minimal promoter fused to five NF-κB and AP-1-binding sites. Cells are seeded into Greiner 384 well plates (15000 cells per well) that are predispensed (by ECHO) with testing compounds in DMSO to yield a final dose response concentration range of 0.85 nM-[…]. After a 60 minute compound pre-treatment in 37° C. incubator, the cells are then stimulated with a TLR7 ligand (gardiquimod at a final concentration of […]), TLR8 ligand (R848 at a final concentration of […]) or TLR9 ligand (ODN2006 at a final concentration of 200 nM) to activate NF-κB and AP-1 which induce the production of SEAP. After a 22 hour incubation at 37° C., 5% CO2, SEAP levels are determined with the addition of HEK-Blue™ Detection reagent (Invivogen), a cell culture medium that allows for detection of SEAP, according to manufacturer's specifications. The percent inhibition is determined as the % reduction in the HEK-Blue signal present in wells treated with agonist plus DMSO alone compared to wells treated with a known inhibitor.
In general terms: In a reporter assay the amount or activity of a reporter protein is the signal.

For assay [2], the target named is T2, human TLR7 (Homo sapiens, UniProt Q9NYK1).
T2 construct: host or cells: HEK-Blue cells (HEK293-derived reporter line)
T2 sequence (Q9NYK1 27-1049): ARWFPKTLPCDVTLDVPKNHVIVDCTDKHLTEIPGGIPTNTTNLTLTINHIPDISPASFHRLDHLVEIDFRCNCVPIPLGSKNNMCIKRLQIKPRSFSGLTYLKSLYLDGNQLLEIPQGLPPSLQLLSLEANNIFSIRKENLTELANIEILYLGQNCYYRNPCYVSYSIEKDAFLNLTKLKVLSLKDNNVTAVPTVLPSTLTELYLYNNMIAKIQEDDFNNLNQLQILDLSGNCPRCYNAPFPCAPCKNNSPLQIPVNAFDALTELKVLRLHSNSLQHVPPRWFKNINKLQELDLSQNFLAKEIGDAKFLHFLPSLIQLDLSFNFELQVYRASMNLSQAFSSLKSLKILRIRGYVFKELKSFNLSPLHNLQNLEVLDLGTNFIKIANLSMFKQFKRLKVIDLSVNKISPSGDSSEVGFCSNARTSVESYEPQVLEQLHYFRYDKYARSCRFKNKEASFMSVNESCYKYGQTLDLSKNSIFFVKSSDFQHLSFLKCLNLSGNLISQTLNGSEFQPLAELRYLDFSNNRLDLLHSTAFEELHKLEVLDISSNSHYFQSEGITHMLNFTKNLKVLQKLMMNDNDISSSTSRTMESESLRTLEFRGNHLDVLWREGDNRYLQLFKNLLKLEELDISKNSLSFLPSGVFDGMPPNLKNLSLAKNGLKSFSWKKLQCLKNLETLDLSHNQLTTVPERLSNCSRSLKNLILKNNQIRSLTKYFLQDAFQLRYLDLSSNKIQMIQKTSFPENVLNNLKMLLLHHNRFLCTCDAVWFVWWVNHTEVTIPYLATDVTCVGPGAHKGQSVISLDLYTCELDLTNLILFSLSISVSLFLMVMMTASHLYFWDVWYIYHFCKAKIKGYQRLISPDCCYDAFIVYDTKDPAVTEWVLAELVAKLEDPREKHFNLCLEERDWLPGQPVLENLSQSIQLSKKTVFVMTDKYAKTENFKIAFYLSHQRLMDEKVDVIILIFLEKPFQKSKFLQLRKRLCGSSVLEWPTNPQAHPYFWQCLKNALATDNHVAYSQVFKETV
The assay can be described thus: TLR7/8/9 Inhibition Reporter Assays (TLR7). The conditions noted are these: HEK-Blue cells overexpressing human TLR7, SEAP reporter, stimulated with TLR7 ligand gardiquimod. The procedure:
as §1

The target of assay [3] is T3, human TLR8 (Homo sapiens, UniProt Q9NR97).
T3 construct: host or cells: HEK-Blue cells (HEK293-derived reporter line)
T3 sequence (Q9NR97 27-1041): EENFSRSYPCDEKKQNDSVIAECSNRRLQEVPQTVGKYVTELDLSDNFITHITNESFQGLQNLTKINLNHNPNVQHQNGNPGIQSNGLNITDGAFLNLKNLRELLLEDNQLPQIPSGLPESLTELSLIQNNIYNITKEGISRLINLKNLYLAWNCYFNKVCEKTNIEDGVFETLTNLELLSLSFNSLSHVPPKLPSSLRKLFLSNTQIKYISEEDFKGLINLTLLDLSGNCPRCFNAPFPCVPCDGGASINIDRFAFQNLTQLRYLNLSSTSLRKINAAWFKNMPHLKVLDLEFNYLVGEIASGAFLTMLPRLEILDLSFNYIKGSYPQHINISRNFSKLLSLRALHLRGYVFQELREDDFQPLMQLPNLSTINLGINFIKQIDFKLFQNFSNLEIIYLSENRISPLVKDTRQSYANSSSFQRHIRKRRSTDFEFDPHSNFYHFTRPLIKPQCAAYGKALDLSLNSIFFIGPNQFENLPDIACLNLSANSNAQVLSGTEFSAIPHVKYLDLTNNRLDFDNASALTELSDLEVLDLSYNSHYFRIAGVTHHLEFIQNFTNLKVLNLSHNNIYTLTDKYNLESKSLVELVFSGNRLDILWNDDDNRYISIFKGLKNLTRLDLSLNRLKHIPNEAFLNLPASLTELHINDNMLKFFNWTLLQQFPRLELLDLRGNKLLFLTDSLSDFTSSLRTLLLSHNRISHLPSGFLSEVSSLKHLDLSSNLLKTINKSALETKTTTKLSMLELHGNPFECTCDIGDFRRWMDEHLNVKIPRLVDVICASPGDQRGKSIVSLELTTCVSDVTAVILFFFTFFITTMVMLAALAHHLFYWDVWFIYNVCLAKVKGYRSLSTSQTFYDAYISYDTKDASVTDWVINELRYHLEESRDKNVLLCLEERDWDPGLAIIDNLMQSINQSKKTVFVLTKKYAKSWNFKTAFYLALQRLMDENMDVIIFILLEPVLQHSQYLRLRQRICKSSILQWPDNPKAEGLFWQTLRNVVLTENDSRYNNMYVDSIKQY
The assay can be described thus: TLR7/8/9 Inhibition Reporter Assays (TLR8). The conditions noted are these: HEK-Blue cells overexpressing human TLR8, SEAP reporter, stimulated with TLR8 ligand R848. The procedure: as §1

By IC50 is commonly meant the point on the concentration scale where inhibition reaches its midpoint. With `Cc1nc(-c2ccc(N3CCN(C(C)C)CC3)cc2)cc2c1nc(-c1ccc(S(C)(=O)=O)cc1)n2C` [Example 6, 6-(4-(4-isopropylpiperazin-1-yl)phenyl)-1,4-dimethyl-2-(4-(methylsulfonyl)phenyl)-1H-imidazo[4,5-c]pyridine], the figures for the IC50 in assay [1], in assay [2] and in assay [3] were 0.8 µM, 3.1 µM and 3 µM, respectively.
Taken in the same sequence, the figures for `COc1ccc(-c2nc3cnc(-c4ccc(N5CC6(C5)CN(C(C)C)C6)cc4)cc3n2C2CC2)cc1OC` [Example 84, 1-cyclopropyl-2-(3,4-dimethoxyphenyl)-6-(4-(6-isopropyl-2,6-diazaspiro[3.3]heptan-2-yl)phenyl)-1H-imidazo[4,5-c]pyridine] were 0.18 µM, 4.4 µM and 2.2 µM.
On the same counts, the results for `COc1ccc(-c2nc3c(C)nc(-c4ccc(N5CC6(C5)CN(C(C)C)C6)cc4)cc3n2C)cc1OC` [Example 76, 2-(3,4-dimethoxyphenyl)-6-(4-(6-isopropyl-2,6-diazaspiro[3.3]heptan-2-yl)phenyl)-1,4-dimethyl-1H-imidazo[4,5-c]pyridine] are 0.023 µM, 1.8 µM and 3.6 µM.
On the same counts, the results for `CC(C)CN1CC2(CCN(c3ccc(-c4cc5c(cn4)nc(-c4ccc(S(C)(=O)=O)cc4)n5C4CC4)cc3)CC2)C1` [Example 86, 1-cyclopropyl-6-(4-(2-isobutyl-2,7-diazaspiro[3.5]nonan-7-yl)phenyl)-2-(4-(methylsulfonyl)phenyl)-1H-imidazo[4,5-c]pyridine] are 0.27 µM, 6.7 µM and 3 µM.
In the case of `CC(C)CN1C[C@@H]2CN(c3ccc(-c4cc5c(cn4)nc(-c4ccc(S(C)(=O)=O)cc4)n5C4CC4)cc3)C[C@@H]2C1` [Example 88, 1-cyclopropyl-6-(4-((3aR,6aS)-5-isobutylhexahydropyrrolo[3,4-c]pyrrol-2(1H)-yl)phenyl)-2-(4-(methylsulfonyl)phenyl)-1H-imidazo[4,5-c]pyridine], the IC50 in assay [1] turned out to be 0.33 µM; in assay [2], 3.4 µM; in assay [3], 1.1 µM.
On to `CC(C)N1CCC(N2CCC(c3cc4c(nc(-c5ccc(S(C)(=O)=O)cc5)n4C)c(C(F)(F)F)n3)CC2)CC1` [Example 3, 6-(1′-isopropyl-[1,4′-bipiperidin]-4-yl)-1-methyl-2-(4-(methylsulfonyl)phenyl)-4-(trifluoromethyl)-1H-imidazo[4,5-c]pyridine], for which the IC50 in assay [1] was 0.11 µM; in assay [2] it was 3.1 µM; in assay [3], greater than 50 µM.
Taken in the same sequence, the figures for `COc1ccc(-c2nc3cnc(-c4ccc(N5CC6(CN(CC(C)C)C6)C5)cc4)cc3n2C2CC2)cc1OC` [Example 85, 1-cyclopropyl-2-(3,4-dimethoxyphenyl)-6-(4-(6-isobutyl-2,6-diazaspiro[3.3]heptan-2-yl)phenyl)-1H-imidazo[4,5-c]pyridine] were 0.17 µM, 3.2 µM and 2.5 µM.
On the same counts, the results for `COc1ccc(-c2nc3c(C)nc(-c4ccc(N5CC6(C5)CN(C5CCC5)C6)cc4)cc3n2C)cc1OC` [Example 77, 6-(4-(6-cyclobutyl-2,6-diazaspiro[3.3]heptan-2-yl)phenyl)-2-(3,4-dimethoxyphenyl)-1,4-dimethyl-1H-imidazo[4,5-c]pyridine] are 0.013 µM, 0.87 µM and 6.9 µM.
On the same counts, the results for `Cc1nc(-c2ccc(C3CCN(CC4COC4)CC3)cc2)cc2c1nc(-c1ccc(S(C)(=O)=O)cc1)n2C` [Example 29, 1,4-dimethyl-2-(4-(methylsulfonyl)phenyl)-6-(4-(1-(oxetan-3-ylmethyl)piperidin-4-yl)phenyl)-1H-imidazo[4,5-c]pyridine] are 1.1 µM, 13 µM and greater than 50 µM.
For the compound `COc1ccc(-c2nc3c(C)nc(-c4ccc(N5CCC6(CC5)CN(C5CCC5)C6)cc4)cc3n2C)cc1OC` [Example 80, 6-(4-(2-cyclobutyl-2,7-diazaspiro[3.5]nonan-7-yl)phenyl)-2-(3,4-dimethoxyphenyl)-1,4-dimethyl-1H-imidazo[4,5-c]pyridine], the values for the IC50 in assay [1], in assay [2] and in assay [3] were 0.061 µM, 0.59 µM and 15 µM, respectively.
